Patent publication US6418341B1, “Needle electrode assembly for electroporation mediated delivery of genes and drugs” (Genetronics, Inc., priority 1993, dated 2002)
Entries after “also recorded” stand apart in the source; their conditions may differ. Marks after values point to notes of the source that are not given here.

What was measured:
[1] = tested on: poorly differentiated human pancreatic tumor (Panc-3); experiment: Electrochemotherapy (ECT) of Panc-3 tumors xenografted subcutaneously in nude mice; assay type: in vivo; conditions: for Overall outcome of the electrochemotherapy protocol: needle array electrodes
Method: The following examples illustrate the use of electrochemotherapy (ECT) of a poorly differentiated human pancreatic tumor (Panc-3) xenografted subcutaneously on the left flank of nude mice. The single treatment procedure involved injection of bleomycin (0.5 units in 0.15 ml saline) intratumorally, using fanning, as described herein followed by application of six square wave electrical pulses, ten minutes later, using proprietary needle array electrodes arranged along the circumference of a circle 1 cm in diameter. Needle array of variable diameters (e.g., 0.5 cm, 0.75 cm and 1.5 cm can also be used to accommodate tumors of various sizes. Stoppers of various heights can be inserted at the center of the array to make the penetration depth of the needles into the tumor variable. A built-in mechanism allowed switching of electrodes for maximum coverage of the tumor by the pulsed field. The electrical parameters were: 1300 V/cm and 6×99 μs pulses spaced at 1 sec interval.
The tumor cell line Panc-3, a poorly differentiated adenocarcinoma cell line of the pancreas, was supplied by AntiCancer, Inc., San Diego. For ECT experiments, tissue taken from the stock mice, where the tumor fine was maintained, was thawed and cut into very small pieces about 1 mm each, and 8-10 pieces were surgically xenografted in a subcutaneous sac made in left flank of nude mice, and then closed with 6.0 surgical suture. After the average tumor size reached about 5 mm, mice with palpable tumors were divided randomly, 10 mice for control group (D+E−; D=Drug, E=Electric field) and 10 mice for ECT treatment namely bleomycin injection followed by pulsing (D+E+) from a BTX Square Wave T820 Generator. The tumor dimensions were measured and the tumor volume calculated using the formula: […]
where a, b, and c are, respectively, the length, width and thickness of the tumor. 0.5 units Bleomycin (Sigma Chemicals) was dissolved in 0.15 ml of 0.9% NaCl and was injected in each mice intratumorally by fanning for both the control (D+E−) and the treated (D+E+) groups. Ten minutes after the injection, each mouse in the D+E+ group was pulsed from a BTX T820 square wave electroporator with a set of needle array electrodes as described in the present invention. Electrical parameters used were as follows: field strength 1300 V/cm, 6 pulses of 99 μs each, at 1 sec interval.
(§1) The mice were monitored every day for mortality and any signs of a diseased state were noted. The tumor dimensions were measured at regular intervals and tumor growth regression/progression monitored. Another set of nude mice with xenografts of non-small cell lung cancer line was also treated by the same procedure as for the Panc-3 tumors.
(§2) The Panc-3 and NSCLC models were utilized with the drug neocarcinostatin (NCS) following the same procedures as outlined above. […] It was believed that due to the low isoelectric point of NCS, electrostatic interaction prevented the drug from entering the tumor cell. Therefore, the experiment was repeated by pulsing first and injecting NCS post-pulse.

[2] = tested on: non-small cell lung cancer cell line (NSCLC), 177; experiment: Electrochemotherapy (ECT) of non-small cell lung cancer xenografts in nude mice; assay type: in vivo; conditions: for Overall outcome of the electrochemotherapy protocol: needle array electrodes
Method: as §1, §2

[3] = P = partition coefficient between octanol and water; cited from earlier work
cancerous tumors = conditions: low dose injected, tumors then electroporated with square wave pulses; cited from earlier work
[4] = ECT, 10 mice treated, 28 days after treatment
[5] = ECT, 10 mice treated, 35 days after treatment
[6] = ECT, 10 mice treated, 57 days after treatment
[7] = ECT, 10 mice treated, 77 days after treatment

## neocarcinostatin [NCS]
[1]; FIGS. 14a and b versus 14c and d
  Post-pulse compared with pre-pulse administration: more effective than pre-pulse administration
[1]
  Overall outcome of the electrochemotherapy protocol: effectively treated
[1]; post-pulse dosing, day 13, 7 mice, mouse ID 1, 2, 4 and 7, appeared to be due to edema (FIG. 14c)
  Final versus initial tumor volume: an increase in tumor volume was observed
[1]; post-pulse dosing, day 23, separate group of 5 mice (FIG. 14d)
  Change of tumor volume: all mice showed a marked reduction in tumor volume
[1]; pre-pulse dosing (FIG. 14a)
  Reduction of tumor size: not effective in reducing tumor size at all
[2]
  Overall outcome of the electrochemotherapy protocol: effectively treated
[2]; pre-pulse dosing (FIG. 14b)
  Reduction of tumor size: not effective in reducing tumor size at all

## bleomycin
[1]; D+E+ group (ECT)
  Histological analysis of tumor samples: severe necrosis of the tumor region; also recorded: necrotic tumor cell ghosts
[1]; ECT (D+E+)
  Cases with partial regression (80% reduction in tumor volume): 30%
  Necrosis and edema at the treatment site: severe necrosis and edema in nearly all the mice
[1]; ECT (D+E+), 35 days after treatment, much slower growth rate than control
  Mice with tumor regrowth: 20%
[1]; ECT (D+E+), 77 days after the single treatment
  Cases with complete regression with no palpable tumor: 60%
[1]; ECT (D+E+), FIG. 10
  Time after which essentially no detectable tumor: approximately 24 days
[1]; [4]
  CR (100%), Complete Regression, number of mice: 6
  NR (%), No Response, number of mice: 1
  PR (80%), Partial Regression, number of mice: 3
[1]; [5]
  CR (100%), Complete Regression, number of mice: 6
  NR (%), No Response, number of mice: 1
  Tumor regrowth, number of mice: 2
[1]; [6]
  CR (100%), Complete Regression, number of mice: 6
  NR (%), No Response, number of mice: 1
[1]; [7]
  CR (100%), Complete Regression, number of mice: 6
  NR (%), No Response, number of mice: 1
[1]; ECT, 10 mice treated, 77 days after treatment, 1 died after retreatment, 1 after 64 days survival
  Death, number of mice: 2*
[1]; compared to the conventional mode of injecting the drug prior to pulsing
  Effect of intratumoral injection with larger volume combined with fanning: very effective
[1]; control group D+E- (drug, no electrical field)
  Change of tumor volume: increased dramatically
[1]; control mouse C1 (D+E-), 1 day after treatment
  Tumor volume (mm^3) C1: 206.979 mm^3
[1]; control mouse C1 (D+E-), 8 days after treatment
  Tumor volume (mm^3) C1: 394.786 mm^3
[1]; control mouse C1 (D+E-), 15 days after treatment
  Tumor volume (mm^3) C1: 557.349 mm^3
[1]; control mouse C1 (D+E-), 18 days after treatment
  Tumor volume (mm^3) C1: 939.582 mm^3
[1]; control mouse C1 (D+E-), 24 days after treatment
  Tumor volume (mm^3) C1: 1391.057 mm^3
[1]; control mouse C1 (D+E-), 28 days after treatment
  Tumor volume (mm^3) C1: 1628.631 mm^3
[1]; control mouse C1 (D+E-), 35 days after treatment
  Tumor volume (mm^3) C1: 2619.765 mm^3
[1]; control mouse C1 (D+E-), 38 days after treatment
  Tumor volume (mm^3) C1: 2908.912 mm^3
[1]; control mouse C1 (D+E-), 43 days after treatment
  Tumor volume (mm^3) C1: 3708.571 mm^3
[1]; control mouse C1 (D+E-, bleomycin 0.5 units intratumoral, no pulsing), 0 days after treatment
  Tumor volume (mm^3) C1: 138.746 mm^3
[1]; control mouse C2 (D+E-), 1 day after treatment
  Tumor volume (mm^3) C2: 179.82 mm^3
[1]; control mouse C2 (D+E-), 8 days after treatment
  Tumor volume (mm^3) C2: 451.787 mm^3
[1]; control mouse C2 (D+E-), 15 days after treatment
  Tumor volume (mm^3) C2: 798.919 mm^3
[1]; control mouse C2 (D+E-), 18 days after treatment
  Tumor volume (mm^3) C2: 881.752 mm^3
[1]; control mouse C2 (D+E-), 24 days after treatment
  Tumor volume (mm^3) C2: 1406.98 mm^3
[1]; control mouse C2 (D+E-), 28 days after treatment
  Tumor volume (mm^3) C2: 1474.21 mm^3
[1]; control mouse C2 (D+E-), 35 days after treatment
  Tumor volume (mm^3) C2: 2330.31 mm^3
[1]; control mouse C2 (D+E-), 38 days after treatment
  Tumor volume (mm^3) C2: 2333.967 mm^3
[1]; control mouse C2 (D+E-), 43 days after treatment
  Tumor volume (mm^3) C2: 5381.759 mm^3
[1]; control mouse C2 (D+E-, bleomycin 0.5 units intratumoral, no pulsing), 0 days after treatment
  Tumor volume (mm^3) C2: 148.94 mm^3
[1]
  Overall outcome of the electrochemotherapy protocol: effectively treated
[1]; treated by ECT (D+E+)
  Mice with no response: 10%
[1]; treated by ECT (D+E+), after 28 days
  Mice with nearly complete tumor regression: 90%
[1]; treated group D+E+, after a slight initial increase due to edema
  Change of tumor volume: substantial reduction in the tumor volume
[1]; treated mouse T1 (D+E+), 1 day after treatment
  Tumor volume (mm^3) T1: 210.95 mm^3
[1]; treated mouse T1 (D+E+), 8 days after treatment
  Tumor volume (mm^3) T1: 104.55 mm^3
[1]; treated mouse T1 (D+E+), 15 days after treatment
  Tumor volume (mm^3) T1: 113.21 mm^3
[1]; treated mouse T1 (D+E+), 18 days after treatment
  Tumor volume (mm^3) T1: 161.73 mm^3
[1]; treated mouse T1 (D+E+), 24 days after treatment
  Tumor volume (mm^3) T1: 41.56 mm^3
[1]; treated mouse T1 (D+E+), 28 days after treatment
  Tumor volume (mm^3) T1: 0 mm^3
[1]; treated mouse T1 (D+E+), 35 days after treatment
  Tumor volume (mm^3) T1: 0 mm^3
[1]; treated mouse T1 (D+E+), 38 days after treatment
  Tumor volume (mm^3) T1: 0 mm^3
[1]; treated mouse T1 (D+E+), 43 days after treatment
  Tumor volume (mm^3) T1: 0 mm^3
[1]; treated mouse T1 (D+E+, bleomycin 0.5 units intratumoral + 1300 V/cm 6x99 μs pulses), 0 days after treatment
  Tumor volume (mm^3) T1: 123.11 mm^3
[1]; treated mouse T2 (D+E+), 1 day after treatment
  Tumor volume (mm^3) T2: 252.72 mm^3
[1]; treated mouse T2 (D+E+), 8 days after treatment
  Tumor volume (mm^3) T2: 211.11 mm^3
[1]; treated mouse T2 (D+E+), 15 days after treatment
  Tumor volume (mm^3) T2: 226.966 mm^3
[1]; treated mouse T2 (D+E+), 18 days after treatment
  Tumor volume (mm^3) T2: 246.91 mm^3
[1]; treated mouse T2 (D+E+), 24 days after treatment
  Tumor volume (mm^3) T2: 47.2228 mm^3
[1]; treated mouse T2 (D+E+), 28 days after treatment
  Tumor volume (mm^3) T2: 0 mm^3
[1]; treated mouse T2 (D+E+), 35 days after treatment
  Tumor volume (mm^3) T2: 0 mm^3
[1]; treated mouse T2 (D+E+), 38 days after treatment
  Tumor volume (mm^3) T2: 0 mm^3
[1]; treated mouse T2 (D+E+), 43 days after treatment
  Tumor volume (mm^3) T2: 0 mm^3
[1]; treated mouse T2 (D+E+, bleomycin 0.5 units intratumoral + 1300 V/cm 6x99 μs pulses), 0 days after treatment
  Tumor volume (mm^3) T2: 178.37 mm^3
[2]; ECT as for Panc-3, FIGS. 12a, 12b
  Result of ECT treatment on tumor volume: very encouraging results
[2]
  Overall outcome of the electrochemotherapy protocol: effectively treated
[2]; one mouse retreated at day 27, 7 days after retreatment (FIG. 13)
  Tumor after retreatment of a recurred tumor: no evidence of tumor
[3]
  log P: very negative
Cancerous tumors
  Tumor response: reduction or complete remission of the tumors
